The numbers were not newly measured in PMC8985968, “Purification and characterization of antifungal lipopeptide produced by Bacillus velezensis isolated from raw honey” (PLoS ONE, 2022), which cites them from elsewhere.

The subject of data set [1] is Aspergillus, Fusarium, Chrysosporium, Candida albicans, Trichosporium, Alternaria, and Cladosporium. The note with it: isolated from crude extract of B. subtilis. From the text:
In a study by Pathak and Keharia (2014), iturin isomers and surfactin families were isolated from crude extract of B. subtilis. […] Similar t ...

In another data set the test system is mouse models. The method, then: The safety of the producer strains and their products need to be evaluated to achieve broader application of iturin A produced by Bacillus species. […] B. velezensis FZB42 type strain, which is closely related to our isolates, was also evaluated by US Environmental Protection Agency (EPA) and considered n ...

For the substance Iturin A2, the Antifungal spectrum entry in data set [1] is recorded as “broad spectrum antifungal activities”. With Iturin A3/A4/A5, in data set [1], the Antifungal spectrum entry is “broad spectrum antifungal activities”. Take iturin: the Acute toxicity test entry with mouse models (intragastric, 7-day, 5000 mg/kg, no significant damage to liver, kidney, or small intestines) is “safe and non-toxic”. Also, the Subacute toxicity test result in the data set with mouse models (intragastric, 28-day, 2000 mg/kg, no significant damage to liver, kidney, or small intestines) is “safe and non-toxic”. Regarding iturin A, in the data set with mouse models (mouse models), the “Organ-specific toxicity after discontinuation of treatment” value is “reversible”; the “Tissue deposition of iturin A” value is “deposited in liver, lung, and spleen”. The “Toxicity of iturin A in mouse models” value in the data set on mouse models (preliminary toxicology study, acute and subacute) is “can induce hepatotoxicity”.
